Reference: article PMC12136442, “Cholesterol metabolism and intrabacterial potassium homeostasis are intrinsically related in Mycobacterium tuberculosis” (PLOS Pathogens, 2025)

What was measured:
MceG = molecular target: T1, MceG (Mycobacterium tuberculosis, UniProt P9WQL5)
T1 construct: gene mkl

CeoB [1] = molecular target: T2, CeoB (Mycobacterium tuberculosis, UniProt Q7D6R7)
CeoB [2] = molecular target: T2, CeoB; remark: listed apart in the source

T2 sequence (Q7D6R7 entry or part of it): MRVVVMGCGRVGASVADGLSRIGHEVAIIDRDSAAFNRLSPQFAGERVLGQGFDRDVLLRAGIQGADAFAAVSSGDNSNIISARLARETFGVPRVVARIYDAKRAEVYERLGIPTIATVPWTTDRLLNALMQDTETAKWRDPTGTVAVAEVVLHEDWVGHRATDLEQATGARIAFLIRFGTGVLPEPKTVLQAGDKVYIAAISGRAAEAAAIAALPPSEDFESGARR
T1 sequence (P9WQL5 whole entry): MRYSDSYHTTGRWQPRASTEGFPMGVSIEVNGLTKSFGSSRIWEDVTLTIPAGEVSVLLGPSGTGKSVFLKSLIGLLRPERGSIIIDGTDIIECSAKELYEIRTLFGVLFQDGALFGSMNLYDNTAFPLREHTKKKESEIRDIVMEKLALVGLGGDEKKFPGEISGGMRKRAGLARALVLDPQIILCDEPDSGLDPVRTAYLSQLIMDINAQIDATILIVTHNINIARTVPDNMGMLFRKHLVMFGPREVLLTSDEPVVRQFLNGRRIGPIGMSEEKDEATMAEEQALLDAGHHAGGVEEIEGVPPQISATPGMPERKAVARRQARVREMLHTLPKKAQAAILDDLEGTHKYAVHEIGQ

**Q.** With `Nc1ncnc2c1ncn2[C@@H]1O[C@H](COP(=O)(O)OP(=O)(O)OP(=O)(O)O)[C@@H](O)[C@H]1O` [ATP] as the compound, how does the “ADP-Glo kinase assay (luminescence)” value (MceG) read?
**A.** purified MceG exhibited ATPase activity

**Q.** `CC(C)CCC[C@@H](C)[C@H]1CC[C@H]2[C@@H]3CC=C4C[C@@H](O)CC[C@]4(C)[C@H]3CC[C@]12C` [cholesterol] was tested. Which “band intensity at 65oC/50oC” value (CeoB [1]) did it give?
**A.** the presence of cholesterol resulted in an increase in CeoB thermostability

**Q.** Which “DHE fluorescence increase (ex 338 nm, em 381 nm)” value (CeoB [2]) does the source give for `CC(C)[C@@H](C)/C=C/[C@@H](C)[C@H]1CC[C@H]2C3=CC=C4C[C@@H](O)CC[C@]4(C)C3=CC[C@]12C` [dehydroergosterol, ergosta-5,7,9(11),22-tetraen-3β-ol] here?
**A.** incubation of CeoB with DHE resulted in significantly higher DHE fluorescence signal
